Source: patent US11110091B2, “Modulators of toll-like receptors” (Gilead Sciences, Inc., priority 2008, dated 2021)

Tested on: human Peripheral Blood Mononuclear Cell (PMBC)
Assay: PBMC assay: cytokine (IFN-α) stimulation at 24 hours
Assay type: cell-based
Conditions: lowest concentration stimulating IFN-α production at least 3-fold over background, Luminex, read-out: IFN MEC
Experimental: Assays were conducted to determine cytokine stimulation at 24 hours from human Peripheral Blood Mononuclear Cell (PMBC) using the compounds of the present invention. The assays were run in duplicate, with 8-point, half-log dilution curves. The compounds of the present invention were diluted from 10 mM DMSO solution. Cell supernatants are assayed directly for IFNα and 1:10 dilution for TNFα. The assays were performed in a similar fashion as described in Bioorg. […] Specifically, cryo-preserved PBMCs were thawed and seeded 96 well plates with 750,000 cells/well in 190 μL/well cell media. The PBMCs were then incubated for 1 hour at 37° C. at 5% CO2. Then, the compounds of the present invention were added in 10 μL cell media at 8 point, half-log dilution titration. The plates were incubated at 37° C. and 5% CO2 for 24 hours and then spinned at 1200 rpm for 10 min, which was followed by collecting supernatant and storing the same at −80° C. Cytokine secretion was assayed with Luminex and Upstate multi-plex kits, using a Luminex analysis instrument. The IFN-α MEC value for a compound was the lowest concentration at which the compound stimulated IFN-α production at least 3-fold over the background as determined using the assay method above.

| Structure (SMILES) | minimal effective concentration |
| --- | --- |
| COP(=O)(CCOc1nc(N)c2c(n1)N(Cc1cccc(CN3CCCC3)c1)CC(=O)N2)OC [Example 18] | > 0.03 µM |
| COCCOc1nc(N)c2c(n1)N(Cc1ccc(-c3ccc(CN4CCCC4)cc3)cc1)CC(=O)N2 [Example 98] | ≤ 0.03 µM |
| CCOC(=O)CN(Cc1cccc(CN2CCCC2)c1)c1nc(O[C@@H](C)COC)nc(N)c1[N+](=O)[O-] [Compound 86] | ≤ 0.03 µM |
| CCOc1nc(N)c2c(n1)N(Cc1cccc(CN3CCCC3)c1)CC(=O)N2 [Example 62] | > 0.03 µM |
| CCCCOc1nc(N)c2c(n1)N(Cc1ccc3c(c1)CCN(C(C)C)C3)CC(=O)N2 [Example 105] | ≤ 0.03 µM |
| COCCOc1nc(N)c2c(n1)N(Cc1cccc(CN3CCCC3)c1)CC(=O)N2 [Example 2] | ≤ 0.03 µM |
| CCCCOc1nc(N)c2c(n1)N(Cc1ccc3c(c1)CCN(CC)C3)CC(=O)N2 [Example 104] | ≤ 0.03 µM |
| CS(=O)(=O)CCOc1nc(N)c2c(n1)N(Cc1cccc(CN3CCCC3)c1)CC(=O)N2 [Example 20] | > 0.03 µM |
| CC1(COc2nc(N)c3c(n2)N(Cc2cccc(CN4CCCC4)c2)CC(=O)N3)CC1 [Example 6, 4-amino-2-{(1′″-methylcycloprop-1′″-yl)methoxy}-8-[3′-(pyrrolidin-1″-ylmethyl)-benzyl]-5,6,7,8-tetrahydropteridin-6-one] | > 0.03 µM |
| CCCC(C)Oc1nc(N)c2c(n1)N(Cc1cccc(CN3CCCC3)c1)CC(=O)N2 (stereo not shown) [Example 24] | ≤ 0.03 µM |
| CCCCOc1nc(N)c2c(n1)N(Cc1ccc3c(c1)CCN(CC1CC1)C3)CC(=O)N2 [Example 106] | > 0.03 µM |
| CCCCOc1nc(N)c2c(n1)N(Cc1cccc(CN3CCN(C)CC3)c1)CC(=O)N2 [Example 79] | ≤ 0.03 µM |
| Nc1nc(OCC2CCOCC2)nc2c1NC(=O)CN2Cc1ccc(C(F)(F)F)nc1 [Example 118] | > 0.03 µM |
| Nc1nc(NC2CCCC2)nc2c1NC(=O)CN2Cc1cccc(CN2CCCC2)c1 [Example 41] | ≤ 0.03 µM |
| CCCN(C)C(=O)c1nc(N)c2[nH]c(=O)c(=O)n(Cc3cccc(CN4CCCC4)c3)c2n1 [Example 92] | > 0.03 µM |
| CCCCOc1nc(N)c2c(n1)N(Cc1cccc(CN3C(C)CCC3C)c1)CC(=O)N2 (stereo not shown) [Example 102] | ≤ 0.03 µM |
| CCCCOc1nc(N)c2c(n1)N(Cc1cccc(CNc3ccccn3)c1)CC(=O)N2 [Example 80] | > 0.03 µM |
| CCCCOc1nc(N)c2c(n1)N(Cc1ccc(CN3CCCC3)cc1)C(C)C(=O)N2 (stereo not shown) [Example 65] | ≤ 0.03 µM |
| Nc1nc(OCC2CC2)nc2c1NC(=O)CN2Cc1cccc(CN2CCCC2)c1 [Example 5, 4-amino-2-{(cyclopropyl)methoxy}-8-[3′-(pyrrolidin-1″-ylmethyl)-benzyl]-5,6,7,8-tetrahydropteridin-6-one] | > 0.03 µM |
| CC(C)COc1nc(N)c2c(n1)N(Cc1cccc(CN3CCCC3)c1)CC(=O)N2 [Example 10] | > 0.03 µM |
| CCOP(=O)(CCNc1nc(N)c2c(n1)N(Cc1cccc(CN3CCCC3)c1)CC(=O)N2)OCC [Example 45] | > 0.03 µM |
| CCCCOc1nc(N)c2c(n1)N(Cc1cccc(CN3CCCC3)c1)CCC(=O)N2 [Example 50] | > 0.03 µM |
| CCCCOc1nc(N)c2c(n1)N(Cc1cccc(CN3CCCC3)c1)C(C)C(=O)N2 (stereo not shown) [Example 64] | > 0.03 µM |

| Structure (SMILES) | minimal effective concentration |
| --- | --- |
| Nc1nc(OCCN2CCCC2=O)nc2c1NC(=O)CN2Cc1cccc(CN2CCCC2)c1 [Example 22] | > 0.03 µM |
| CCCC(C)Oc1nc(N)c2c(n1)N(Cc1ccc(C)nc1)CC(=O)N2 (stereo not shown) [Example 109] | > 0.03 µM |
| Nc1nc(OCc2cccnc2)nc2c1NC(=O)CN2Cc1cccc(CN2CCCC2)c1 [Example 16] | > 0.03 µM |
| CCCCOc1nc(N)c2c(n1)N(Cc1cccc(CN3CCCC3)c1)C1(CC1)C(=O)N2 [Example 3, 4-Amino-2-n-butoxy-7-(1′″,2′″-ethylidene)-8-[3′-(pyrrolidin-1″-ylmethyl)-benzyl]-5,6,7,8-tetrahydropteridine-6-one] | > 0.03 µM |
| CCCCOc1nc(N)c2c(n1)N(C(C)c1ccc(CN3CCCC3)cc1)CC(=O)N2 (stereo not shown) [Example 74] | > 0.03 µM |
| Nc1nc(NC2CC2)nc2c1NC(=O)CN2Cc1cccc(CN2CCCC2)c1 [Example 35] | > 0.03 µM |
| Nc1nc(NC2CCC2)nc2c1NC(=O)CN2Cc1cccc(CN2CCCC2)c1 [Example 40] | ≤ 0.03 µM |
| COCCNc1nc(N)c2c(n1)N(Cc1cccc(CN3CCCC3)c1)CC(=O)N2 [Example 33] | > 0.03 µM |
| CCCCOc1nc(N)c2c(n1)N(Cc1ccc(-c3cccc(CN4CCCC4)c3)cc1)CC(=O)N2 [Example 96] | ≤ 0.03 µM |
| CCC[C@H](C)Oc1nc(N)c2c(n1)N(Cc1cccc(CN3CCCC3)c1)CC(=O)N2 [Example 59] | ≤ 0.03 µM |
| Nc1nc(OC2CCCC2)nc2c1NC(=O)CN2Cc1ccnc(N2CCOCC2)c1 [Example 69] | > 0.03 µM |
| CS(=O)(=O)CCNc1nc(N)c2c(n1)N(Cc1cccc(CN3CCCC3)c1)CC(=O)N2 [Example 44] | > 0.03 µM |
| Nc1nc(OCC2CCCO2)nc2c1NC(=O)CN2Cc1cccc(CN2CCCC2)c1 (stereo not shown) [Example 29] | > 0.03 µM |
| CCCCOc1nc(N)c2[nH]c(=O)c(=O)n(Cc3ccc(C)nc3)c2n1 [Example 112] | > 0.03 µM |
| Nc1nc(OCC2CCC2)nc2c1NC(=O)CN2Cc1cccc(CN2CCCC2)c1 [Example 7, 4-amino-2-{(cyclobutyl)methoxy}-8-[3′-(pyrrolidin-1″-ylmethyl)-benzyl]-5,6,7,8-tetrahydropteridin-6-one] | > 0.03 µM |
| Nc1nc(OCCC(F)(F)F)nc2c1NC(=O)CN2Cc1cccc(CN2CCCC2)c1 [Example 55] | ≤ 0.03 µM |
| Nc1nc(N[C@@H]2CCOC2)nc2c1NC(=O)CN2Cc1cccc(CN2CCCC2)c1 [Example 46] | > 0.03 µM |
| CCCN(C)C(=O)c1nc(N)c2c(n1)N(Cc1cccc(CN3CCCC3)c1)CC(=O)N2 [Example 81] | > 0.03 µM |
| Nc1nc(NCC2CC2)nc2c1NC(=O)CN2Cc1cccc(CN2CCCC2)c1 [Example 39] | ≤ 0.03 µM |
| CCCCOc1nc(N)c2c(n1)N(Cc1ccc3c(c1)CN(CC1CC1)CC3)CC(=O)N2 [Example 70] | ≤ 0.03 µM |
| CCCCOc1nc(N)c2c(n1)N(Cc1ccnc(N3CCOCC3)c1)CC(=O)N2 [Example 66] | > 0.03 µM |
| COCCOc1nc(N)c2[nH]c(=O)c(=O)n(Cc3ccc(-c4cccc(CN5CCCC5)c4)cc3)c2n1 [Example 95] | ≤ 0.03 µM |
| CCCCCOc1nc(N)c2c(n1)N(Cc1cccc(CN3CCCC3)c1)CC(=O)N2 [Example 12] | > 0.03 µM |
